{
  "source": "patent US5268374A",
  "about": "“Non-peptide renin inhibitors” (Abbott Laboratories, priority 1991, dated 1993)",
  "key": {"human renal renin": {"target": "T1, human renal renin (Homo sapiens, UniProt P00797)", "T1 construct": "from tissue; host or cells: human kidney (read from the word 'renal'; no preparation is printed)", "T1 sequence (P00797 67-406)": "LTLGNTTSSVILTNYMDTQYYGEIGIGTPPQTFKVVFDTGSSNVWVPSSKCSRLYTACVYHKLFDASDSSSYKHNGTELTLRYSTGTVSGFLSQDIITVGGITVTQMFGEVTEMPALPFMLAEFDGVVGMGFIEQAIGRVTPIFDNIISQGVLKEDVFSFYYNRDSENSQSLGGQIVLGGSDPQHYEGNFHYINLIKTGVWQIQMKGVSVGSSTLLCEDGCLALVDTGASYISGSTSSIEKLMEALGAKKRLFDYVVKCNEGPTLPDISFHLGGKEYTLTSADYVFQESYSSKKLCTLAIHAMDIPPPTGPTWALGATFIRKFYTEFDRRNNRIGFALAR", "test": "Inhibition of human renal renin in vitro (angiotensin I formation by radioimmunoassay)", "type": "biochemical", "conditions": "human renal renin, 37 degrees C, pH 6.0; read-out: IC50"}, "[1]": {"test": "Blood pressure in salt-depleted monkeys after oral dosing", "type": "in vivo, cynomolgous monkeys", "conditions": "3 mg/kg oral", "description": "(§1) The ability of the compounds of the invention to decrease blood pressure and plasma renin activity in vivo can be determined using the following method.\n(§2) Male cynomolgous monkeys housed under constant temperature and lighting conditions and weighing 3-5 kg were instrumented with chronic indwelling arterial and venous catheters."}, "plasma renin": {"tested_on": "plasma renin", "test": "Plasma renin activity (PRA) in salt-depleted monkeys after oral dosing", "type": "in vivo, cynomolgous monkeys", "conditions": "3 mg/kg oral", "description": "as §1, §2"}, "[2]": {"conditions": "Mean of two monkeys, time 0 min"}},
  "data": [
    {"smiles": "CCCC[C@H](O[C@@H](Cc1ccccc1)C(=O)N1CCC(OCOC)CC1)C(=O)N[C@@H](CC1CCCCC1)[C@@H](O)C[C@H](C(=O)NCCCN1CCOCC1)C(C)C", "note": "[Example 118, 2(S)-(1(S)-(4-(Methoxymethoxy)piperidin-1-yl)carbonyl-2-phenyl)ethoxyhexanoic acid amide of 3-(4-morpholinyl)propyl 5(S)-amino-6-cyclohexyl-4(S)-hydroxy-2(S)-isopropylhexanamide]", "values": [
      {"measurement": "IC50", "setting": "human renal renin", "result": 0.84, "unit": "nM"},
      {"measurement": "Blood pressure (BP)", "setting": "[1]; Mean of two monkeys, 5 min", "result": 117, "unit": "mmHg"},
      {"measurement": "Blood pressure (BP)", "setting": "[1]; Mean of two monkeys, 15 min", "result": 111, "unit": "mmHg"},
      {"measurement": "Blood pressure (BP)", "setting": "[1]; Mean of two monkeys, 30 min", "result": 112, "unit": "mmHg"},
      {"measurement": "Blood pressure (BP)", "setting": "[1]; Mean of two monkeys, 45 min", "result": 104, "unit": "mmHg"},
      {"measurement": "Blood pressure (BP)", "setting": "[1]; Mean of two monkeys, 60 min", "result": 109, "unit": "mmHg"},
      {"measurement": "Blood pressure (BP)", "setting": "[1]; Mean of two monkeys, 90 min", "result": 98, "unit": "mmHg"},
      {"measurement": "Blood pressure (BP)", "setting": "[1]; Mean of two monkeys, 120 min", "result": 94, "unit": "mmHg"},
      {"measurement": "Blood pressure (BP)", "setting": "[1]; Mean of two monkeys, 180 min", "result": 94, "unit": "mmHg"},
      {"measurement": "Blood pressure (BP)", "setting": "[1]; Mean of two monkeys, 360 min", "result": 99, "unit": "mmHg"},
      {"measurement": "Blood pressure (BP)", "setting": "[1]; [2]", "result": 114, "unit": "mmHg"},
      {"measurement": "Blood pressure (BP)", "setting": "[1]; Monkey 1, 5 min", "result": 112, "unit": "mmHg"},
      {"measurement": "Blood pressure (BP)", "setting": "[1]; Monkey 1, 15 min", "result": 105, "unit": "mmHg"},
      {"measurement": "Blood pressure (BP)", "setting": "[1]; Monkey 1, 30 min", "result": 113, "unit": "mmHg"},
      {"measurement": "Blood pressure (BP)", "setting": "[1]; Monkey 1, 45 min", "result": 95, "unit": "mmHg"},
      {"measurement": "Blood pressure (BP)", "setting": "[1]; Monkey 1, 60 min", "result": 102, "unit": "mmHg"},
      {"measurement": "Blood pressure (BP)", "setting": "[1]; Monkey 1, 90 min", "result": 90, "unit": "mmHg"},
      {"measurement": "Blood pressure (BP)", "setting": "[1]; Monkey 1, 120 min", "result": 84, "unit": "mmHg"},
      {"measurement": "Blood pressure (BP)", "setting": "[1]; Monkey 1, 180 min", "result": 84, "unit": "mmHg"},
      {"measurement": "Blood pressure (BP)", "setting": "[1]; Monkey 1, 360 min", "result": 94, "unit": "mmHg"},
      {"measurement": "Blood pressure (BP)", "setting": "[1]; Monkey 1, time 0 min", "result": 107, "unit": "mmHg"},
      {"measurement": "Blood pressure (BP)", "setting": "[1]; Monkey 2, 5 min", "result": 121, "unit": "mmHg"},
      {"measurement": "Blood pressure (BP)", "setting": "[1]; Monkey 2, 15 min", "result": 117, "unit": "mmHg"},
      {"measurement": "Blood pressure (BP)", "setting": "[1]; Monkey 2, 30 min", "result": 110, "unit": "mmHg"},
      {"measurement": "Blood pressure (BP)", "setting": "[1]; Monkey 2, 45 min", "result": 112, "unit": "mmHg"},
      {"measurement": "Blood pressure (BP)", "setting": "[1]; Monkey 2, 60 min", "result": 115, "unit": "mmHg"},
      {"measurement": "Blood pressure (BP)", "setting": "[1]; Monkey 2, 90 min", "result": 106, "unit": "mmHg"},
      {"measurement": "Blood pressure (BP)", "setting": "[1]; Monkey 2, 120 min", "result": 103, "unit": "mmHg"},
      {"measurement": "Blood pressure (BP)", "setting": "[1]; Monkey 2, 180 min", "result": 103, "unit": "mmHg"},
      {"measurement": "Blood pressure (BP)", "setting": "[1]; Monkey 2, 360 min", "result": 103, "unit": "mmHg"},
      {"measurement": "Blood pressure (BP)", "setting": "[1]; Monkey 2, time 0 min", "result": 120, "unit": "mmHg"},
      {"measurement": "Plasma Renin Activity (PRA)", "setting": "plasma renin; Mean of two monkeys, 5 min", "result": 9.7, "unit": "ng/mL/h"},
      {"measurement": "Plasma Renin Activity (PRA)", "setting": "plasma renin; Mean of two monkeys, 15 min", "result": 1.5, "unit": "ng/mL/h"},
      {"measurement": "Plasma Renin Activity (PRA)", "setting": "plasma renin; Mean of two monkeys, 30 min", "result": 0.4, "unit": "ng/mL/h"},
      {"measurement": "Plasma Renin Activity (PRA)", "setting": "plasma renin; Mean of two monkeys, 45 min", "result": 0.2, "unit": "ng/mL/h"},
      {"measurement": "Plasma Renin Activity (PRA)", "setting": "plasma renin; Mean of two monkeys, 60 min", "result": 0.2, "unit": "ng/mL/h"},
      {"measurement": "Plasma Renin Activity (PRA)", "setting": "plasma renin; Mean of two monkeys, 90 min", "result": 0.0, "unit": "ng/mL/h"},
      {"measurement": "Plasma Renin Activity (PRA)", "setting": "plasma renin; Mean of two monkeys, 120 min", "result": 0.3, "unit": "ng/mL/h"},
      {"measurement": "Plasma Renin Activity (PRA)", "setting": "plasma renin; Mean of two monkeys, 180 min", "result": 0.3, "unit": "ng/mL/h"},
      {"measurement": "Plasma Renin Activity (PRA)", "setting": "plasma renin; Mean of two monkeys, 360 min", "result": 0.2, "unit": "ng/mL/h"},
      {"measurement": "Plasma Renin Activity (PRA)", "setting": "plasma renin; [2]", "result": 23.9, "unit": "ng/mL/h"},
      {"measurement": "Plasma Renin Activity (PRA)", "setting": "plasma renin; Monkey 1, 5 min", "result": 5.8, "unit": "ng/mL/h"},
      {"measurement": "Plasma Renin Activity (PRA)", "setting": "plasma renin; Monkey 1, 15 min", "result": 0.1, "unit": "ng/mL/h"},
      {"measurement": "Plasma Renin Activity (PRA)", "setting": "plasma renin; Monkey 1, 30 min", "result": 0.4, "unit": "ng/mL/h"},
      {"measurement": "Plasma Renin Activity (PRA)", "setting": "plasma renin; Monkey 1, 45 min", "result": 0.0, "unit": "ng/mL/h"},
      {"measurement": "Plasma Renin Activity (PRA)", "setting": "plasma renin; Monkey 1, 60 min", "result": 0.0, "unit": "ng/mL/h"},
      {"measurement": "Plasma Renin Activity (PRA)", "setting": "plasma renin; Monkey 1, 90 min", "result": 0.0, "unit": "ng/mL/h"},
      {"measurement": "Plasma Renin Activity (PRA)", "setting": "plasma renin; Monkey 1, 120 min", "result": 0.2, "unit": "ng/mL/h"},
      {"measurement": "Plasma Renin Activity (PRA)", "setting": "plasma renin; Monkey 1, 180 min", "result": 0.2, "unit": "ng/mL/h"},
      {"measurement": "Plasma Renin Activity (PRA)", "setting": "plasma renin; Monkey 1, 360 min", "result": 0.0, "unit": "ng/mL/h"},
      {"measurement": "Plasma Renin Activity (PRA)", "setting": "plasma renin; Monkey 1, time 0 min", "result": 29.1, "unit": "ng/mL/h"},
      {"measurement": "Plasma Renin Activity (PRA)", "setting": "plasma renin; Monkey 2, 5 min", "result": 13.5, "unit": "ng/mL/h"},
      {"measurement": "Plasma Renin Activity (PRA)", "setting": "plasma renin; Monkey 2, 15 min", "result": 2.9, "unit": "ng/mL/h"},
      {"measurement": "Plasma Renin Activity (PRA)", "setting": "plasma renin; Monkey 2, 30 min", "result": 0.4, "unit": "ng/mL/h"},
      {"measurement": "Plasma Renin Activity (PRA)", "setting": "plasma renin; Monkey 2, 45 min", "result": 0.3, "unit": "ng/mL/h"},
      {"measurement": "Plasma Renin Activity (PRA)", "setting": "plasma renin; Monkey 2, 60 min", "result": 0.3, "unit": "ng/mL/h"},
      {"measurement": "Plasma Renin Activity (PRA)", "setting": "plasma renin; Monkey 2, 90 min", "result": 0.0, "unit": "ng/mL/h"},
      {"measurement": "Plasma Renin Activity (PRA)", "setting": "plasma renin; Monkey 2, 120 min", "result": 0.4, "unit": "ng/mL/h"},
      {"measurement": "Plasma Renin Activity (PRA)", "setting": "plasma renin; Monkey 2, 180 min", "result": 0.4, "unit": "ng/mL/h"},
      {"measurement": "Plasma Renin Activity (PRA)", "setting": "plasma renin; Monkey 2, 360 min", "result": 0.3, "unit": "ng/mL/h"},
      {"measurement": "Plasma Renin Activity (PRA)", "setting": "plasma renin; Monkey 2, time 0 min", "result": 18.7, "unit": "ng/mL/h"}
    ]}
  ]
}
